# Test results from ChEMBL document CHEMBL1156106 (J Med Chem, 2009).
# Assays:
# [1] = test system: Mus musculus; assay: Antidepressant activity in ip dosed mouse assessed as stimulation of locomotor activity relative to cocaine; assay type: functional
# [2] = test system: Rattus norvegicus; assay: Effect on behavioural activity in rat assessed as cocaine-induced lever response at 25 mg/kg, ip pretreated with cocaine for 240 mins by drug-discrimination studies; assay type: functional; conditions: route intraperitoneal
# [3] = test system: Mus musculus; assay: Antidepressant activity in ip dosed mouse assessed as duration of locomotor activity; assay type: functional
# [4] = test system: Mus musculus; assay: Antidepressant activity in ip dosed mouse assessed as time to reach peak stimulation of locomotor activity; assay type: functional
# [5] = test system: Rattus norvegicus; assay: Effect on behavioural activity in rat assessed as cocaine-induced lever response at 50 mg/kg, ip pretreated with cocaine for 240 mins by drug-discrimination studies; assay type: functional; conditions: route intraperitoneal
# [6] = test system: Mus musculus; assay: Antidepressant activity in ip dosed mouse assessed as stimulation of locomotor activity; assay type: functional
# [7] = target: T1, Sodium-dependent serotonin transporter (Homo sapiens, UniProt P31645); assay: Inhibition of [3H]serotonin reuptake at human SERT expressed in HEK293 cells; assay type: cell-based
# [8] = test system: Rattus norvegicus; assay: Effect on behavioural activity in rat assessed as cocaine-induced lever response at 100 mg/kg, po pretreated with cocaine for 360 mins by drug-discrimination studies; assay type: functional
# [9] = test system: Rattus norvegicus; assay: Effect on behavioural activity in rat assessed as cocaine-induced lever response at 5 mg/kg, po pretreated with cocaine for 360 mins by drug-discrimination studies; assay type: functional
# [10] = test system: Rattus norvegicus; assay: Effect on behavioural activity in rat assessed as cocaine-induced lever response at 2.5 mg/kg, po pretreated with cocaine for 45 mins by drug-discrimination studies; assay type: functional
# [11] = test system: Rattus norvegicus; assay: Effect on behavioural activity in rat assessed as cocaine-induced lever response at 2.5 mg/kg, po pretreated with cocaine for 90 mins by drug-discrimination studies; assay type: functional
# [12] = test system: Rattus norvegicus; assay: Effect on behavioural activity in rat assessed as cocaine-induced lever response at 50 mg/kg, ip pretreated with cocaine for 30 mins by drug-discrimination studies; assay type: functional; conditions: route intraperitoneal
# [13] = test system: Rattus norvegicus; assay: Effect on behavioural activity in rat assessed as cocaine-induced lever response at 25 mg/kg, po pretreated with cocaine for 360 mins by drug-discrimination studies; assay type: functional
# [14] = test system: Rattus norvegicus; assay: Effect on behavioural activity in rat assessed as cocaine-induced lever response at 25 mg/kg, po pretreated with cocaine for 180 mins by drug-discrimination studies; assay type: functional
# [15] = test system: Rattus norvegicus; assay: Effect on behavioural activity in rat assessed as cocaine-induced lever response at 25 mg/kg, po pretreated with cocaine for 45 mins by drug-discrimination studies; assay type: functional
# [16] = test system: Rattus norvegicus; assay: Effect on behavioural activity in rat assessed as cocaine-induced lever response at 5 mg/kg, po pretreated with cocaine for 180 mins by drug-discrimination studies; assay type: functional
# [17] = test system: Rattus norvegicus; assay: Effect on behavioural activity in rat assessed as cocaine-induced lever response at 50 mg/kg, po pretreated with cocaine for 360 mins by drug-discrimination studies; assay type: functional
# [18] = target: T2, Sodium-dependent noradrenaline transporter (Homo sapiens, UniProt P23975); assay: Displacement of [125I]RTI55 from cloned human NET expressed in HEK293 cells; assay type: cell-based
# [19] = test system: Rattus norvegicus; assay: Effect on behavioural activity in rat assessed as cocaine-induced lever response at 5 mg/kg, po pretreated with cocaine for 45 mins by drug-discrimination studies; assay type: functional
# [20] = test system: Rattus norvegicus; assay: Effect on behavioural activity in ip dosed rat assessed as cocaine-induced lever response pretreated with cocaine by drug-discrimination studies; assay type: functional
# [21] = target: T1, Sodium-dependent serotonin transporter; assay: biochemical; assay type: cell-based, HEK293
# [22] = test system: Rattus norvegicus; assay: Effect on behavioural activity in rat assessed as cocaine-induced lever response at 25 mg/kg, po pretreated with cocaine for 90 mins by drug-discrimination studies; assay type: functional
# [23] = test system: Rattus norvegicus; assay: Effect on behavioural activity in rat assessed as cocaine-induced lever response at 10 mg/kg, po pretreated with cocaine for 45 mins by drug-discrimination studies; assay type: functional
# [24] = test system: Rattus norvegicus; assay: Effect on behavioural activity in rat assessed as cocaine-induced lever response at 10 mg/kg, po pretreated with cocaine for 90 mins by drug-discrimination studies; assay type: functional
# [25] = test system: Rattus norvegicus; assay: Effect on behavioural activity in rat assessed as cocaine-induced lever response at 2.5 mg/kg, po pretreated with cocaine for 180 mins by drug-discrimination studies; assay type: functional
# [26] = test system: Rattus norvegicus; assay: Effect on behavioural activity in rat assessed as cocaine-induced lever response at 50 mg/kg, po pretreated with cocaine for 90 mins by drug-discrimination studies; assay type: functional
# [27] = test system: Rattus norvegicus; assay: Effect on behavioural activity in rat assessed as cocaine-induced lever response at 10 mg/kg, po pretreated with cocaine for 360 mins by drug-discrimination studies; assay type: functional
# [28] = test system: Rattus norvegicus; assay: Effect on behavioural activity in rat assessed as cocaine-induced lever response at 100 mg/kg, po pretreated with cocaine for 90 mins by drug-discrimination studies; assay type: functional
# [29] = test system: Rattus norvegicus; assay: Effect on behavioural activity in po dosed rat assessed as cocaine-induced lever response pretreated with cocaine by drug-discrimination studies; assay type: functional
# [30] = test system: Rattus norvegicus; assay: Effect on behavioural activity in rat assessed as cocaine-induced lever response at 2.5 mg/kg, po pretreated with cocaine for 360 mins by drug-discrimination studies; assay type: functional
# [31] = test system: Rattus norvegicus; assay: Effect on behavioural activity in rat assessed as cocaine-induced lever response at 100 mg/kg, po pretreated with cocaine for 45 mins by drug-discrimination studies; assay type: functional
# [32] = test system: Rattus norvegicus; assay: Effect on behavioural activity in rat assessed as cocaine-induced lever response at 100 mg/kg, po pretreated with cocaine for 180 mins by drug-discrimination studies; assay type: functional
# [33] = test system: Rattus norvegicus; assay: Effect on behavioural activity in rat assessed as cocaine-induced lever response at 50 mg/kg, po pretreated with cocaine for 180 mins by drug-discrimination studies; assay type: functional
# [34] = test system: Rattus norvegicus; assay: Effect on behavioural activity in rat assessed as cocaine-induced lever response at 10 mg/kg, po pretreated with cocaine for 180 mins by drug-discrimination studies; assay type: functional
# [35] = test system: Rattus norvegicus; assay: Effect on behavioural activity in rat assessed as cocaine-induced lever response at 50 mg/kg, po pretreated with cocaine for 45 mins by drug-discrimination studies; assay type: functional
# [36] = test system: Rattus norvegicus; assay: Effect on behavioural activity in rat assessed as cocaine-induced lever response at 2.5 mg/kg, ip pretreated with cocaine for 30 mins by drug-discrimination studies; assay type: functional; conditions: route intraperitoneal
# [37] = test system: Rattus norvegicus; assay: Effect on behavioural activity in rat assessed as cocaine-induced lever response at 10 mg/kg, ip pretreated with cocaine for 30 mins by drug-discrimination studies; assay type: functional; conditions: route intraperitoneal
# [38] = test system: Rattus norvegicus; assay: Effect on behavioural activity in rat assessed as cocaine-induced lever response at 5 mg/kg, po pretreated with cocaine for 90 mins by drug-discrimination studies; assay type: functional
# [39] = test system: Rattus norvegicus; assay: Effect on behavioural activity in rat assessed as cocaine-induced lever response at 25 mg/kg, ip pretreated with cocaine for 80 mins by drug-discrimination studies; assay type: functional; conditions: route intraperitoneal
# [40] = test system: Rattus norvegicus; assay: Effect on behavioural activity in rat assessed as cocaine-induced lever response at 50 mg/kg, ip pretreated with cocaine for 80 mins by drug-discrimination studies; assay type: functional; conditions: route intraperitoneal
# [41] = test system: Rattus norvegicus; assay: Effect on behavioural activity in rat assessed as cocaine-induced lever response at 10 mg/kg, ip pretreated with cocaine for 80 mins by drug-discrimination studies; assay type: functional; conditions: route intraperitoneal
# [42] = test system: Rattus norvegicus; assay: Effect on behavioural activity in rat assessed as cocaine-induced lever response at 100 mg/kg, ip pretreated with cocaine for 80 mins by drug-discrimination studies; assay type: functional; conditions: route intraperitoneal
# [43] = test system: Rattus norvegicus; assay: Effect on behavioural activity in rat assessed as cocaine-induced lever response at 10 mg/kg, ip pretreated with cocaine for 335 mins by drug-discrimination studies; assay type: functional; conditions: route intraperitoneal
# [44] = test system: Rattus norvegicus; assay: Effect on behavioural activity in rat assessed as cocaine-induced lever response at 100 mg/kg, ip pretreated with cocaine for 335 mins by drug-discrimination studies; assay type: functional; conditions: route intraperitoneal
# [45] = test system: Rattus norvegicus; assay: Effect on behavioural activity in rat assessed as cocaine-induced lever response at 50 mg/kg, ip pretreated with cocaine for 335 mins by drug-discrimination studies; assay type: functional; conditions: route intraperitoneal
# [46] = test system: Rattus norvegicus; assay: Effect on behavioural activity in rat assessed as cocaine-induced lever response at 25 mg/kg, ip pretreated with cocaine for 335 mins by drug-discrimination studies; assay type: functional; conditions: route intraperitoneal
# [47] = test system: Rattus norvegicus; assay: Effect on behavioural activity in rat assessed as cocaine-induced lever response at 10 mg/kg, ip pretreated with cocaine for 60 mins by drug-discrimination studies; assay type: functional; conditions: route intraperitoneal
# [48] = target: T3, Sodium-dependent dopamine transporter (Homo sapiens, UniProt Q01959); assay: Inhibition of [3H]dopamine reuptake at human DAT expressed in HEK293 cells; assay type: cell-based
# [49] = test system: Rattus norvegicus; assay: Effect on behavioural activity in rat assessed as cocaine-induced lever response at 25 mg/kg, ip pretreated with cocaine for 60 mins by drug-discrimination studies; assay type: functional; conditions: route intraperitoneal
# [50] = test system: Rattus norvegicus; assay: Toxicity in rat assessed as adverse effects at 50 mg/kg, ip; assay type: organism-based; design: dose 50 mg/kg, route intraperitoneal; conditions: in vivo
# [51] = test system: Rattus norvegicus; assay: Effect on behavioural activity in rat assessed as cocaine-induced lever response at 5 mg/kg, ip pretreated with cocaine for 60 mins by drug-discrimination studies; assay type: functional; conditions: route intraperitoneal
# [52] = target: T3, Sodium-dependent dopamine transporter; assay: Displacement of [125I]RTI55 from cloned human DAT expressed in HEK293 cells; assay type: cell-based
# [53] = target: T2, Sodium-dependent noradrenaline transporter; assay: Inhibition of [3H]norepinephrine reuptake at human NET expressed in HEK293 cells; assay type: cell-based
# T2 sequence (P23975 whole entry): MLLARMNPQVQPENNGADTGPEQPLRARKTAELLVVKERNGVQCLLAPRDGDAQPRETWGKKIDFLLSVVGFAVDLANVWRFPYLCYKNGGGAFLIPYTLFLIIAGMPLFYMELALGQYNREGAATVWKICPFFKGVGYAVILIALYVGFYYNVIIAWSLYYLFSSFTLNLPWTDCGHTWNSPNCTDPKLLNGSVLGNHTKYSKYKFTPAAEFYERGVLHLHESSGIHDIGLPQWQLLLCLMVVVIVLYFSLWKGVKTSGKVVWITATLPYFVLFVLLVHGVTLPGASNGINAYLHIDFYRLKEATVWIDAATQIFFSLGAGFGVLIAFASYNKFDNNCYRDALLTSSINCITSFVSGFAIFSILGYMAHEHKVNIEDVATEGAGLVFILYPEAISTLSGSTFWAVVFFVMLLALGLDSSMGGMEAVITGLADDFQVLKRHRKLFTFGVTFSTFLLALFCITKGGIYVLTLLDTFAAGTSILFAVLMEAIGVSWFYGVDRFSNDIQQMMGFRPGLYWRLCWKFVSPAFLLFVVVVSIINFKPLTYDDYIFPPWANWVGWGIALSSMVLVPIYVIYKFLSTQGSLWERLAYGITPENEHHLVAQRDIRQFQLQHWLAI
# T1 sequence (P31645 whole entry): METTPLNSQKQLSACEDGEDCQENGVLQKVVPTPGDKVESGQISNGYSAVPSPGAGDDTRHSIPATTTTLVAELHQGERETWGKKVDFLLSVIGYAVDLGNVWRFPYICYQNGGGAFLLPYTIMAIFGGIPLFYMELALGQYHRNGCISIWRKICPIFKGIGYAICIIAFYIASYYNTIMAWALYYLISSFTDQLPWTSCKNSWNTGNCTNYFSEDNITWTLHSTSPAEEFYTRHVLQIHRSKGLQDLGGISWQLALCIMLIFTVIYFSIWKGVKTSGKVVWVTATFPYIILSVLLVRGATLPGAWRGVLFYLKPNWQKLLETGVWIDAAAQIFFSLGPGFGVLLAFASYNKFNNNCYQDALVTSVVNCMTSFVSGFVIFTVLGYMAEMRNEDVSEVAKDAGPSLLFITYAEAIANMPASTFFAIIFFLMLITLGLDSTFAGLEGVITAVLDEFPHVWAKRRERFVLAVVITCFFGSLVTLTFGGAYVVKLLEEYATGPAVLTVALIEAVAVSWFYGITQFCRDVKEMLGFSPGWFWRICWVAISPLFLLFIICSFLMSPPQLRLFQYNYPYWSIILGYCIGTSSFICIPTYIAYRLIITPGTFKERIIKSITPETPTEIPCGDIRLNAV
# T3 sequence (Q01959 whole entry): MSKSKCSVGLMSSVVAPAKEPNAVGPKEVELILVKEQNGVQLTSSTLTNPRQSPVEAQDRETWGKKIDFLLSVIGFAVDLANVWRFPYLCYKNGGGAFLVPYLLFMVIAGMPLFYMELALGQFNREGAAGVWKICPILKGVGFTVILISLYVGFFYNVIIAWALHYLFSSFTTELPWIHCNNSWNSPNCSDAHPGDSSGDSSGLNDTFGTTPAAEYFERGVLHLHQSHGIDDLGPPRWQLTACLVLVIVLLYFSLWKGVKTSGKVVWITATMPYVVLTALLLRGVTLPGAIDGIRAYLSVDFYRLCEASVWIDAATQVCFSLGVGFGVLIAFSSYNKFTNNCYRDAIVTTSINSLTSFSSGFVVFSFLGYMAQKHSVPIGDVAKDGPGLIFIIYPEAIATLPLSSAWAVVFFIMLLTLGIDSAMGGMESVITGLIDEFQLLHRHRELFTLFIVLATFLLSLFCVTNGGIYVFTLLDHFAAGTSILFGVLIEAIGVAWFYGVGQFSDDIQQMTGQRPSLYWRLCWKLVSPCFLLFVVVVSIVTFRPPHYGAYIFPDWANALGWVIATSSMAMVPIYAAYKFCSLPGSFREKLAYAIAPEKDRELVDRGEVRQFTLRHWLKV
compound,measurement,setting,value
CC(NC(C)(C)C)C(=O)c1ccc(Cl)c(Cl)c1 (stereo not drawn),Activity,[1],61%
same,Activity,[2],16.7%
same,Time,[3],140 min
same,Time to peak locomotor stimulation,[4],270 min
same,Activity,[5],22.4%
same,ED50,[6],26.9 mg/kg
same,IC50,[7],> 10 µM
CC(NC(C)(C)C)C(=O)c1cc(F)cc(F)c1 (stereo not drawn),Activity,[8],0%
same,Activity,[9],0%
same,Activity,[10],0%
same,Activity,[11],20%
same,Activity,[12],83.3%
same,Activity,[13],7%
same,Activity,[14],0%
same,Activity,[1],84%
same,Activity,[15],4%
same,Activity,[16],0%
same,Activity,[17],0%
same,Ki,[18],> 10 µM
same,Activity,[19],31%
same,ED50,[20],7.8 mg/kg
same,Ki,[21],> 10 µM
same,Time,[3],280 min
same,Activity,[22],25%
same,Activity,[23],0%
same,Time to peak locomotor stimulation,[4],0 min
same,Activity,[24],33%
same,Activity,[25],0%
same,Activity,[26],58%
same,Activity,[27],3%
same,Activity,[28],84%
same,ED50,[29],41.5 mg/kg
same,Activity,[30],0%
same,Activity,[31],18%
same,Activity,[32],17%
same,Activity,[33],20%
same,Activity,[34],0%
same,Activity,[35],67%
same,Activity,[36],0%
same,Activity,[37],16.7%
same,Activity,[38],7%
same,ED50,[6],35 mg/kg
CC(NC(C)(C)C)C(=O)c1ccc(Br)cc1 (stereo not drawn),Activity,[39],16.7%
same,Activity,[1],54%
same,Activity,[40],20%
same,Ki,[18],> 10 µM
same,Activity,[41],1.7%
same,Time,[3],160 min
same,Time to peak locomotor stimulation,[4],140 min
same,Activity,[42],0.5%
same,ED50,[6],29.5 mg/kg
CC(C(=O)c1cccc(Cl)c1)N1CCCCC1 (stereo not drawn),Activity,[43],7%
same,Activity,[1],45%
same,Time,[3],30 min
same,Activity,[44],33.7%
same,Activity,[45],32.7%
same,Time to peak locomotor stimulation,[4],320 min
same,Activity,[46],16.5%
same,ED50,[6],34.7 mg/kg
CC(C)(C)NC(CCC1CCCCC1)C(=O)c1cccc(Cl)c1 (stereo not drawn),Activity,[47],0.7%
same,IC50,[48],> 10 µM
same,Activity,[1],33%
same,Activity,[49],69.6%
same,Ki,[18],3.8 µM
same,Activity,[50],Toxic
same,Activity,[51],0.2%
same,Ki,[52],1.7 µM
same,Ki,[21],6.2 µM
same,Time,[3],160 min
same,Time to peak locomotor stimulation,[4],60 min
same,IC50,[53],> 10 µM
same,ED50,[6],14.1 mg/kg
same,IC50,[7],> 10 µM
